Source: US10501447B2, “Imidazolecarboxamides and their use as FAAH inhibitors” (BIAL-PORTELA & Ca, S.A., priority 2013, dated 2019)

Target: T1, FAAH (Rattus norvegicus, UniProt P97612)
T1 construct: Liver biopsies and brain samples (without cerebellum) were collected and placed in a plastic vial containing membrane buffer; from tissue; host or cells: liver homogenate of male Wistar rats
T1 sequence (P97612 1-579): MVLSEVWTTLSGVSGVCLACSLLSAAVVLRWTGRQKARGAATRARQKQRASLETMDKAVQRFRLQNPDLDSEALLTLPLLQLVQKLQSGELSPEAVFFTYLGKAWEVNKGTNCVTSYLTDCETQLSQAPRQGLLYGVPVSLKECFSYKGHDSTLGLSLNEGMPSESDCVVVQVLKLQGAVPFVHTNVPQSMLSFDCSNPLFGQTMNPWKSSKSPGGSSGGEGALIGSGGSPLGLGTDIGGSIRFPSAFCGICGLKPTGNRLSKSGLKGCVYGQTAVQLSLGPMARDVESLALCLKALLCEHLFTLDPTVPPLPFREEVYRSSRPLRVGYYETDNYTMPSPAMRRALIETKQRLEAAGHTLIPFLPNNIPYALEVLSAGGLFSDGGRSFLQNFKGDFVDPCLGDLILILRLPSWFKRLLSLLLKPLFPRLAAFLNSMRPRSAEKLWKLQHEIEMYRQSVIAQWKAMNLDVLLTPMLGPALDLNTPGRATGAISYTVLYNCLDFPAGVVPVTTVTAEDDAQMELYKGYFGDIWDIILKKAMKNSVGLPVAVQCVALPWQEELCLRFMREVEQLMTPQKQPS
Assay: FAAH activity in liver homogenate after oral dosing of rats
Format: in vivo
Conditions: gavage; for activity at 0.1 mg/kg: rat, po
Protocol: In vivo testing was performed according to the protocol described below. BRh (brain homogenate) indicates inhibition in central nervous tissue, in this case, brain, and LVh (liver homogenate) indicates inhibition in peripheral tissue, in this case, liver. The controls were the reaction mix minus the test compounds. Therefore, a low value for the test compound indicates a strong inhibitor.
Male Wistar rats (body weight range: 190-230 g) were obtained from Harlan (Spain). Rats were kept 5 per cage, under controlled environmental conditions (12 hr light/dark cycle and room temperature 22±1° C.). Food and tap water were allowed ad libitum and the experiments were all carried out during daylight hours.
Rats were administered the appropriate dose of compound of the invention via gavage (administration volume=4 ml/kg body weight) using animal feeding stainless steel curve needles (Perfectum, U.S.A.). Vehicle was 0.5% CMC in Milli Q water. Rats were fasted at least 15 h before experiments.
Fifteen minutes before sacrifice animals were anesthetized with pentobarbital i.p. 60 mg/kg body weight. Liver biopsies and brain samples (without cerebellum) were collected and placed in a plastic vial containing membrane buffer (3 mM MgCl2, 1 mM EDTA, 50 mM Tris HCl pH 7.4) and, in the case of liver samples, glass beads (2.5 mm BioSpec Products). Tissues were stored at −20° C. until analysis.
Anandamide [ethanolamine-1-3H-] was obtained from American Radiochemicals (specific activity of 60 Ci/mmol). All other reagents were obtained from Sigma-Aldrich. Optiphase Supermix was obtained from Perkin Elmer.
Tissues were thawed on ice; livers were homogenized in a Precellys 24 Dual Tissue Homogenizer (Bertin Technologies) for 2 cycles of 5 sec with an interval of 5 min in ice and brains were homogenized with Heidolph Silent Crusher M (probe 8 F/M) for about 45 sec at maximum velocity. Total protein in homogenates was determined with the BioRad Protein Assay (BioRad) using a standard curve of BSA (50-250 μg/ml).
Reaction mix (total volume of 200 μl) contained: 2 μM AEA (2 μM AEA+5 nM 3H-AEA), 0.1% fatty acid free BSA, 15 μg (brain) or 1.5 μg (liver) protein, in 1 mM EDTA, 10 mM Tris pH 7.6. After 15 minutes pre-incubation at 37° C. reaction was started by the addition of the substrate solution (cold AEA+radiolabelled AEA+BSA). Reaction was carried out for 7 minutes for liver samples and for 10 min for brain samples and terminated by addition of 400 μL chloroform:methanol (1:1, v/v) solution. Reaction samples were vortex twice, left on ice for 5 minutes and then centrifuged in microfuge (7 minutes, 7000 rpm). Two-hundred μl of supernatants were added to 800 μl Optiphase Supermix scintillation cocktail previously distributed in 24-well plates. Counts per minute (cpm) were determined in a Microbeta TriLux scintillation counter. In each assay blank samples (without protein) were prepared. The percentage of remaining enzymatic activity was calculated in respect to controls and after blank subtraction.

## CN(C(=O)n1cnc(-c2cccc(NS(N)(=O)=O)c2)c1)C1CCOCC1 [Compound 1, N-Methyl-4-(3-(sulfamoylamino)phenyl)-N-(tetrahydro-2H-pyran-4-yl)-1H-imidazole-1-carboxamide]
Dose: 1 mg/k9, 1 h
  FAAH Activity (%) rat Liver: 9.8%
Dose: 1 mg/k9, 8 h
  FAAH Activity (%) rat Liver: 4.8%
Dose: 1 mg/k9, 24 h
  FAAH Activity (%) rat Liver: 22.7%

## CCC(=O)N1CCC(N(C)C(=O)n2cnc(-c3ccc(O)c(C)c3)c2)CC1 [Compound 2, 4-(4-Hydroxy-3-methylphenyl)-N-methyl-N-(1-propionylpiperidin-4-yl)-1H-imidazole-1-carboxamide]
Dose: 1 mg/k9, 1 h
  FAAH Activity (%) rat Liver: 25.7%
Dose: 1 mg/k9, 8 h
  FAAH Activity (%) rat Liver: 18.2%
Dose: 1 mg/k9, 24 h
  FAAH Activity (%) rat Liver: 17.8%
1 h
  activity at 0.1 mg/kg: 78.2%
8 h
  activity at 0.1 mg/kg: 59.1%

## Cc1cc(-c2cn(C(=O)N(C)C3CCN(C(=O)C4CC4)CC3)cn2)ccc1O [Compound 3, N-(1-(Cyclopropanecarbonyl)piperidin-4-yl)-4-(4-hydroxy-3-methylphenyl)-N-methyl-1H-imidazole-1-carboxamide]
1 h
  activity at 0.1 mg/kg: 83.5%
8 h
  activity at 0.1 mg/kg: 62.5%
